Experiment [1] has as its system Lentivirus. Nature of the experiment: Lentivirus particle (physical) titer by Lenti-X GoStix Plus after packaging with a CP generator plasmid. Type of experiment: cell-based. Particulars: FIG. 25; generator plasmid 0.5, 5, 50 ng; normalised to six no-CP controls. Here is the method:
(§1) Cyclic peptides are used herein to improve viral titer and transduction efficiency during lentiviral production. Lentivirus was produced using Takara Bio lentivirus packaging kit either with (left panels) or without (right panels; bars labeled CTRL) a cyclic peptide generator plasmid. The cyclic peptides produced by different amounts (e.g., 0.5 ng, 5 ng and 50 ng) of corresponding generator plasmids were CSSLT (SEQ ID NO: 37), CGSTKS (SEQ ID NO: 43), CKYEE (SEQ ID NO: 40), CPYTD (SEQ ID NO: 44), CPLQVP (SEQ ID NO: 45). 5 ng plasmid experiment for CGSTKS (SEQ ID NO: 43) failed and is not shown. The virus was collected, and particle titers were enumerated using Takara Bio Lenti-X GoStix Plus quantitative lentiviral titer test. The biological titer was determined by transducing fresh HEK293 cells with the various lentiviral preparations (e.g., packaged with or without a cyclic peptide). The fold difference in particle titer and transduction unit titer is calculated by normalizing to the average of six control lentiviral transductions from packaging runs without cyclic peptide. The control (CTRL) conditions illustrate negligible noise.
This example illustrates methodologies for Cyclic peptide-enhanced lentiviral vector production. • 1) Cells were seeded at 4-5×10^6 cells per 10-cm plate, 24 hours prior to transfection, to achieve 80-90% confluence at the time of transfection. • 2) 7.0 μg of lentiviral vector plasmid DNA was diluted in sterile water to a volume of 600 μl along with a cyclic peptide generator that expresses a cyclic peptide. • 3) Titration of cyclic peptide plasmid DNA concentrations, from 0.5 ng to 50 ng, was used in this Example. However, the amount of required plasmid DNA depends on many factors, including the specific cyclic peptide being expressed, the cyclic peptide generator (e.g. more efficient cyclic peptide generators may need less DNA), and promoter strength (the pCMV promoter driving strong expression is used in this Example). • 4) Between 4-8 control conditions (depending on number of experimental conditions) were also prepared that are identical to the above, except that no cyclic peptide plasmid was added. • 5) This DNA was added to a tube of Lenti-X Packaging Single Shots and vortexed to mix. • 6) The mixture was incubated for 10 minutes at room temperature to allow the formation of nanoparticle complexes, then briefly centrifuged. • 7) The entire 600 μl of nanoparticle complex solution was added dropwise to the packaging cells, which were then rocked gently to mix. • 8) Lentiviral packaging. […] They were centrifuged or filtered to remove cellular debris, using a filter of cellulose acetate or polysulfone, not nitrocellulose. • 10) Virus production was verified and can be quantified using Lenti-X GoStix™ Plus or any other standard methodology. Then, the virus can be used to transduce target cells or stored at −80° C. • 11) Next, for each viral production condition (e.g., different cyclic peptide packaging conditions, CP dosages, and controls), a three order of magnitude serial dilution at 10-fold dilution steps was performed. • 12) All viral samples were then transduced, harboring a GFP transgene, into fresh HEK293 cells. • 13) After 3 days, the transduced cells were collected, and analyzed them by flow cytometry (see FIG. 26). • 14) Finally, the biological titer (flow cytometry) and physical titer (GoStix) were normalized to the no-CP control to determine the fold improvements in both viral titer and infectiousness. […]

The subject of experiment [2] is Lentivirus. Nature of the experiment: Lentivirus biological titer (flow cytometry of transduced HEK293 cells) after packaging with a CP generator plasmid. The format is cell-based. Particulars: for lentiviral biological (transduction unit) titer, fold difference to control: FIG. 25, generator plasmid 0.5, 5, 50 ng, HEK293 cells. The procedure:
as §1
FIG. 26. Exemplary representative flow cytometry raw data illustrating that when cyclic peptide CGSTKS (SEQ ID NO: 43) is present during lentiviral production, the biological titer increases by over 8-fold compared to when the cyclic peptide is absent. This figure depicts the raw flow cytometry data used to determine the biological titer of lentiviral samples. This is an example of the data that was used to determine the lentiviral biological titers in FIG. 25. The X-axis of each graph represents the forward light scattering (FSC) from flow cytometry. The Y-axis represents the GFP intensity of each cell. A 100-fold dilution of Lentivirus with a GFP payload produced either in the presence (A) or absence (B) of cyclic peptide were used to transduce HEK293 cells. A 100-fold dilution of the preparation was used (e.g., without physical titer normalization) to ensure a direct, batch-to-batch comparison of the impact of the cyclic peptide on viral packaging performance. • Part A—Flow cytometry raw data (with minor forward and side scatter gating to remove irrelevant particles) of HEK293 transduced with a lentiviral preparation produced in the presence of cyclic peptide CGSTKS (SEQ ID NO: 43) generated from a plasmid constructed transduced into packaging cells at 0.5 ng. • Part B—Flow cytometry raw data (with minor forward and side scatter gating to remove irrelevant particles) of HEK293 transduced with a lentiviral preparation produced without cyclic peptide.
This example illustrates methodologies for Cyclic peptide-enhanced lentiviral vector production. • 1) Cells were seeded at 4-5×10^6 cells per 10-cm plate, 24 hours prior to transfection, to achieve 80-90% confluence at the time of transfection. • 2) 7.0 μg of lentiviral vector plasmid DNA was diluted in sterile water to a volume of 600 μl along with a cyclic peptide generator that expresses a cyclic peptide. • 3) Titration of cyclic peptide plasmid DNA concentrations, from 0.5 ng to 50 ng, was used in this Example. […]

A further experiment has as its system AAV2-GFP. Briefly: Transduction efficiency (TU:VG ratio) of AAV2-GFP packaged in cells expressing a CP. Particulars: FIG. 23; CP plasmid 0.3 ng to 100 ng, versus control without CP. The format is cell-based, adeno-associated virus. The text has this:
AAV2-GFP were harvested and assayed for biological and physical titer as described in FIG. 20
FIG. 24. […] This figure depicts the raw flow cytometry data used to determine the biological titer of AAV samples. This is an example of the data that was used to determine the biological titers in FIG. 23. The X-axis of each graph represents the forward light scattering (FSC) from flow cytometry. The Y-axis represents the GFP intensity of each cell. A 1000-fold dilution of AAV2-GFP particles produced either in the presence (A) or absence (B) of cyclic peptide were used to transduce HEK293 cells. A 1000-fold dilution of the preparation was used (e.g., without physical titer normalization) to ensure a direct, batch-to-batch comparison of the impact of cyclic peptide on viral packaging performance.
As used herein, the term “transduction efficiency” refers to the effectiveness (efficiency) of viral particles in delivering their genetic payload to the target cells. This efficiency may be represented by the transducing units to vector genomes ratio (TU:VG). Viral formulations with enhanced transduction efficiency can achieve greater numbers of DNA delivery events for the same number of DNA-containing viral particles. […] Enhanced transduction efficiency may be achieved by optimizing the cellular environment for viral production, leading to viral particles with improved capsid structure, viral particle biochemistry, or viral particle assembly. Increasing transduction efficiency refers to improvements in the TU:VG ratio, which encompasses both infectivity and biological titer.
• 1. A 100-mm cell culture dish was reseeded with 4.0×10^6 Hek293T cells in high glucose DMEM culture medium supplemented with 10% FBS. • 2. […] A jetOPTIMUS DNA transfection reagent i used during the transfection protocol (from Polyplus). • 3. 12-16 hours after transfection, media was replaced with low glucose DMEM culture medium supplemented with 1% FBS, 1×Glutamax, 10 mM HEPES, and 0.075% sodium bicarbonate. • 4. Cells and media were harvested 4 days after transfection and frozen in 1 mL aliquots. • 5. Frozen aliquots were thawed and lysed using AAVMax Lysis Reagent (Life Technologies, USA, A50520). 100 uL of AAVMax Lysis buffer was added to 900 uL of cell and media. Mixture was incubated for 2 hours with rotating. Debris was pelleted at 5,000xg for 15 minutes. AAV containing supernatant was collected. • 6. The physical and biological titers of the harvested AAV samples were determined by qPCR and biological viral titer measurement as described in Example 1.
Full, but non-functional viral particles represent a major manufacturing challenge for AAV gene therapies. At present, there is no process capable of purifying the functional viral particles from the full, but non-functional fraction.

The test system of the next experiment is AAV6. Nature of the experiment: Single-site amino acid substitution scanning of CPs by enrichment score in AAV6. Particulars: FIG. 29, relative to original CP. The format is cell-based, adeno-associated virus. The source says: This plot visually depicts the functional impact of mutations on a particular cyclic peptide as measured by enrichment score. The heatmap provides valuable insights into the mutational landscape of cyclic peptides, highlighting positions where certain amino acid substitutions are either not tolerated (e.g., resulting in depletion), are neutral (e.g., resulting in similar enrichment scores), or are favored (e.g., resulting in higher enrichment, indicating enhanced cyclic peptide variants).
The heatmap is structured with rows indicating the position of the original amino acid, while the columns represent the position of the mutated amino acid (for a given row). The X-axis corresponds to the 20 natural amino acid substitutions for a given cyclic peptide residue index. The Y axis represents the amino acids present in a specific cyclic peptide, starting from the top with the “scar” residue from the peptide cyclization splicing reaction of DNA expressed cyclic peptides. The scar residue is typically amino acids containing a nucleophilic side chain like cysteine, serine, or threonine. Each row is labeled by the native amino acid of a given CP with amino acid positions going from top to bottom (e.g. index 1 is at the top, followed by index 2 followed by, index 3, etc. . . . ). The final amino acid at the bottom cyclizes with the scar residue at top. […]

Ends that are not written are not given here.

In the case of “CGSTKS: engineered cyclic peptide, SEQ ID NO: 43 (also: cyclic, closure not given here)”, the “lentiviral physical (particle) titer, fold difference to control” value in the experiment on Lentivirus [1] is “unexpected degree of improvement”. Also, the “lentiviral biological (transduction unit) titer, fold difference to control” value in the experiment with Lentivirus [2] was “unexpected degree of improvement”. In the experiment with Lentivirus [2] (FIG. 26, generator plasmid at 0.5 ng, 100-fold dilution on HEK293 cells, versus no CP), the “increase of lentiviral biological titer” value is “over 8 fold”.

For “CKYEE: engineered cyclic peptide, SEQ ID NO: 40 (also: cyclic, closure not given here)”, the “lentiviral physical (particle) titer, fold difference to control” value in the experiment with Lentivirus [1] is on record as “unexpected degree of improvement”. Also, the “lentiviral biological (transduction unit) titer, fold difference to control” value with Lentivirus [2] is “unexpected degree of improvement”. For the same substance, in the experiment on AAV2-GFP, the “transduction efficiency of AAV2-GFP produced in the presence of CP” value was “improvements in transduction efficiency”.

For “CPLQVP: engineered cyclic peptide, SEQ ID NO: 45 (also: cyclic, closure not given here)”, the “lentiviral physical (particle) titer, fold difference to control” value in the experiment with Lentivirus [1] is “unexpected degree of improvement”. Further, the “lentiviral biological (transduction unit) titer, fold difference to control” value in the experiment on Lentivirus [2] is given as “unexpected degree of improvement”.

Regarding “CPYTD: engineered cyclic peptide, SEQ ID NO: 44 (also: cyclic, closure not given here)”, in the experiment on Lentivirus [1], the “lentiviral physical (particle) titer, fold difference to control” value is “unexpected degree of improvement”. The “lentiviral biological (transduction unit) titer, fold difference to control” value in the experiment on Lentivirus [2] is given as “unexpected degree of improvement”.

For “CSSLT: engineered cyclic peptide, SEQ ID NO: 37 (also: cyclic, closure not given here)”, the “lentiviral physical (particle) titer, fold difference to control” value with Lentivirus [1] is given as “unexpected degree of improvement”. Further, the “lentiviral biological (transduction unit) titer, fold difference to control” value with Lentivirus [2] is listed as “unexpected degree of improvement”. Also, the “transduction efficiency of AAV2-GFP produced in the presence of CP” value in the experiment with AAV2-GFP is “improvements in transduction efficiency”.

With “Ser2Pro: CSSLT with serine in residue index 2 substituted with proline (CPSLT; cyclic; Cyclic peptide that was found to enhance AAV TU:VG ratio and lentiviral titer.)”, the “enrichment factor of single-site substitution variant” value with AAV6 is “substantially increased enrichment factors”.

Source of the values: US20230416307A1, “[…] PEPTIDES FOR ENHANCING VIRAL PRODUCTION” (Synvivia, Inc., priority 2022, published 2023).
